Results from ChEMBL document CHEMBL1133958, “Derivatives of (2R,3R,4S)-2-aminomethylpyrrolidine-3,4-diol are selective alpha-mannosidase inhibitors” (Bioorg Med Chem Lett, 2001).
Calls of active or inactive are those of the source. The rule behind the calls is not given here.

Legend:
[1] = molecular target: T1, Beta-galactosidase (Bos taurus) (UniProt Q58D55); test: Percentage inhibition of Beta-galactosidase from Bovine liver at 1 mM concentration
T1 sequence (whole entry): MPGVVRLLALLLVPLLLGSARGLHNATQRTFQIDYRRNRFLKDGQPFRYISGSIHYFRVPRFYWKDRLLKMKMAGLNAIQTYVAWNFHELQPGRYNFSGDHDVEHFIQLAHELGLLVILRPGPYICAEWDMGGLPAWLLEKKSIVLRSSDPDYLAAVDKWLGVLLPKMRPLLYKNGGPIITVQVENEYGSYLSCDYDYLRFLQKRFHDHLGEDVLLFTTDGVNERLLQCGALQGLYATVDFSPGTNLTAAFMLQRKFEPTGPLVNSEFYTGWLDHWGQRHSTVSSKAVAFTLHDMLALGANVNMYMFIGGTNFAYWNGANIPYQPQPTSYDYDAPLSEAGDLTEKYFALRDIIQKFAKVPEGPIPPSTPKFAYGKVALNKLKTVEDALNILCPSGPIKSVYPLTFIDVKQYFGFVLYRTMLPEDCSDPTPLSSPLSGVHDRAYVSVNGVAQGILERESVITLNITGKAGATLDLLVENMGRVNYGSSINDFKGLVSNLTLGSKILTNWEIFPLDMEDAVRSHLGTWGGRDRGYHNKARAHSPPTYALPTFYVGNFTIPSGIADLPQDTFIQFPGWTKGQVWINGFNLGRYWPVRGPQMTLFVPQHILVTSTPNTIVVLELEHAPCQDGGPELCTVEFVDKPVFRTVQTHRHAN

Beta-galactosidase = molecular target: T2, Beta-galactosidase (Bos taurus, UniProt Q58D55); test: Inhibitory activity towards Beta-galactosidase from Bovine liver
T2 sequence (Q58D55 whole entry): T1 sequence (whole entry)

Beta-glucosidase A [2] = molecular target: T3, Beta-glucosidase A (Caldicellulosiruptor saccharolyticus, UniProt P10482); test: Inhibitory activity towards Beta-Glucosidase from Caldocellum saccharol.
T3 sequence (P10482 whole entry): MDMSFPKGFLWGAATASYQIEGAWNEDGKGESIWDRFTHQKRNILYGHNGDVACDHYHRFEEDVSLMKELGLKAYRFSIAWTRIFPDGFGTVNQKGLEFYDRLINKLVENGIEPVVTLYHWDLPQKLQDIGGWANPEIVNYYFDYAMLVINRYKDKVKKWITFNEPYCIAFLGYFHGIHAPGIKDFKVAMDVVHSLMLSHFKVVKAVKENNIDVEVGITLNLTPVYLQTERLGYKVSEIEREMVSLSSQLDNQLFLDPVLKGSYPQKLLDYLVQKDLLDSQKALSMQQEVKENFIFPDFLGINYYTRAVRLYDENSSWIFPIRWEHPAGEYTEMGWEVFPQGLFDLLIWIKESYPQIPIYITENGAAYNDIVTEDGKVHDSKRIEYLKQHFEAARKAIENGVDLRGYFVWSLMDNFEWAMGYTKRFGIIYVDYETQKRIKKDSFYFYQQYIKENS

[3] = molecular target: Beta-galactosidase (Escherichia coli K-12) (UniProt P00722); test: Percentage inhibition of Beta-galactosidase from Escherichia coli at 1 mM concentration
Beta-galactosidase (Escherichia coli K-12), sequence (P00722 whole entry): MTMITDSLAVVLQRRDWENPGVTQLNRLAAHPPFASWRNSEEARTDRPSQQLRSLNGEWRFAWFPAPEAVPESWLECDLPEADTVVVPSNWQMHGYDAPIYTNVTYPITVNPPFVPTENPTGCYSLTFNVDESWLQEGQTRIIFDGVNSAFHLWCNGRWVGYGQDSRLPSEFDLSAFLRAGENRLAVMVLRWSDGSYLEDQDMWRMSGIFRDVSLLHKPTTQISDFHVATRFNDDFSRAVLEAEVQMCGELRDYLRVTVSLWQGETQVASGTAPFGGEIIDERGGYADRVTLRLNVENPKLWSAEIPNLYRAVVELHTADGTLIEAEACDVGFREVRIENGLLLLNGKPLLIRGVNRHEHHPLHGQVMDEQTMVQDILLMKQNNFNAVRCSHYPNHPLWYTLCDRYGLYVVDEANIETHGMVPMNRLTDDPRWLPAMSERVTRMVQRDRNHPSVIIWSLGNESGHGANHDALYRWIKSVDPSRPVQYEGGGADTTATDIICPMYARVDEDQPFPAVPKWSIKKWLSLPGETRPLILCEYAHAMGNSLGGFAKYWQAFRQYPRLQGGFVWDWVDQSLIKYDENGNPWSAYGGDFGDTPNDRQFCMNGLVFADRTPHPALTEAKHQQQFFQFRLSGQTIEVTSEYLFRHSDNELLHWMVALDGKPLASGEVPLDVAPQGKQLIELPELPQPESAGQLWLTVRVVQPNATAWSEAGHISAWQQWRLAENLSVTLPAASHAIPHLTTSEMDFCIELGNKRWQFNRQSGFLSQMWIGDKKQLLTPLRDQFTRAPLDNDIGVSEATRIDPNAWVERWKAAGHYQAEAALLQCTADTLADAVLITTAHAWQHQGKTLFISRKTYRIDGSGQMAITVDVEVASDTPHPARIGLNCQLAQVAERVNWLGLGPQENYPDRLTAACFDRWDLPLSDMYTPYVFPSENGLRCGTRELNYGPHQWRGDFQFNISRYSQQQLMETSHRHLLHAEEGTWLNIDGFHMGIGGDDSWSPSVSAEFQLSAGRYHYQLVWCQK

[4] = molecular target: T4, Glucoamylase 1 (Rhizopus oryzae) (UniProt P07683); test: Percentage inhibition of Alpha-glucosidase from Rhizopus mold (amyloglucosidase) at 1 mM concentration; No inhibition; conditions: Rhizopus arrhizus
T4 sequence (whole entry): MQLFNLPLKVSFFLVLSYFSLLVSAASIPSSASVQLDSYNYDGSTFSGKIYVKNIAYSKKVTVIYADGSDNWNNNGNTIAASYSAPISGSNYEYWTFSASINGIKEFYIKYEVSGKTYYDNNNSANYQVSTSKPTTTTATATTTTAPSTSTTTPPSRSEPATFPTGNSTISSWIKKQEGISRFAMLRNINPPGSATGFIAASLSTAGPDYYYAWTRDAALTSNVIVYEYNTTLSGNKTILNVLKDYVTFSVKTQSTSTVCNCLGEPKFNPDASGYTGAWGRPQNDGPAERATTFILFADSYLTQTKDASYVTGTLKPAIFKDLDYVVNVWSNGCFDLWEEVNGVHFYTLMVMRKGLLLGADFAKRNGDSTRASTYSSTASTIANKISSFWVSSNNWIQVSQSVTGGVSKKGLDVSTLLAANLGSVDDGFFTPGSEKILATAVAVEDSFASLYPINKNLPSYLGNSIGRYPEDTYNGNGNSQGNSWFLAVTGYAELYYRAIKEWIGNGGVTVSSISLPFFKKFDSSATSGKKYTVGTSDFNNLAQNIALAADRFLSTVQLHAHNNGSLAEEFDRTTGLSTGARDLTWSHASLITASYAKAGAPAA

[5] = Percentage inhibition of Beta-galactosidase from Jack bean at 1 mM concentration; conditions: Canavalia ensiformis
[6] = Percentage inhibition of Beta-galactosidase from Aspergillus oryzae at 1 mM; No inhibition
[7] = tested on: Alpha-mannosidase (Prunus dulcis); test: Percentage inhibition of Alpha-mannosidase from Almond at 1 mM
[8] = molecular target: T5, Alpha-glucosidase (Oryza sativa Japonica Group) (UniProt Q9LGC6); test: Percentage inhibition of Alpha-glucosidase from Rice (maltase) at 1 mM; […]
T5 sequence (whole entry): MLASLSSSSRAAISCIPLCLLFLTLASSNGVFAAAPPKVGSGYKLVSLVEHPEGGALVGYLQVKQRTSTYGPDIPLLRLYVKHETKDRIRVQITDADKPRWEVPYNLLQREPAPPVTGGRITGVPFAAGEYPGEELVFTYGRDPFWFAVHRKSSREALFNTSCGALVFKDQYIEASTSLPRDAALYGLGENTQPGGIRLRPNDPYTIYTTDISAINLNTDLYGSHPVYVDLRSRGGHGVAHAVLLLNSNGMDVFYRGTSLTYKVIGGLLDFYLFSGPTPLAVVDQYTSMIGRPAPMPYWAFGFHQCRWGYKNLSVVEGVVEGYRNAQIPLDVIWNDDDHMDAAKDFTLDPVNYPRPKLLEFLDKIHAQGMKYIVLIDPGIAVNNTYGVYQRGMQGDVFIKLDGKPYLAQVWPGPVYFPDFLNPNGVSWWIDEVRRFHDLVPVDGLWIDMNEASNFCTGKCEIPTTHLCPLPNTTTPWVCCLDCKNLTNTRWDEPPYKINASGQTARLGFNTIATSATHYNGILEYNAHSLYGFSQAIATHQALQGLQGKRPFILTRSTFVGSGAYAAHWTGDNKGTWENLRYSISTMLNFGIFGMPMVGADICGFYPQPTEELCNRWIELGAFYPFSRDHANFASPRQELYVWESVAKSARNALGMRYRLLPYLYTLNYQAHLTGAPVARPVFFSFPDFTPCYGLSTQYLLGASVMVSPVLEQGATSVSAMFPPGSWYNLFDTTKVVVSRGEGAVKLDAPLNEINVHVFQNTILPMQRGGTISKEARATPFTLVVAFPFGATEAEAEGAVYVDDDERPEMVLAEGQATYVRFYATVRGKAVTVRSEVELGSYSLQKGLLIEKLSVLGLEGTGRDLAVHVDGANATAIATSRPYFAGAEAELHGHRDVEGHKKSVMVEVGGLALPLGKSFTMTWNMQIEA

[9] = Inhibitory activity towards Alpha-glucosidase from Yeast (maltase); set-up: species or system Saccharomyces cerevisiae
[10] = Inhibitory activity towards Alpha-glucosidase from Baker yeast (isomaltase); set-up: species or system Saccharomyces cerevisiae
[11] = molecular target: Beta-glucosidase A (Caldicellulosiruptor saccharolyticus) (UniProt P10482); test: Percentage inhibition of Beta-Glucosidase from Caldocellum saccharol. at 1 mM
Beta-glucosidase A (Caldicellulosiruptor saccharolyticus), sequence (P10482 whole entry): as the sequence (P10482 whole entry) above

Beta-glucosidase A [12] = molecular target: T3, Beta-glucosidase A; test: Inhibitory activity towards Beta-Glucosidase from Caldocellum saccharol
[13] = molecular target: Glucoamylase (Aspergillus niger) (UniProt P69328); test: Percentage inhibition of Alpha-glucosidase from Aspergillus niger (amyloglucosidase) at 1 mM; No inhibition
Glucoamylase (Aspergillus niger), sequence (P69328 whole entry): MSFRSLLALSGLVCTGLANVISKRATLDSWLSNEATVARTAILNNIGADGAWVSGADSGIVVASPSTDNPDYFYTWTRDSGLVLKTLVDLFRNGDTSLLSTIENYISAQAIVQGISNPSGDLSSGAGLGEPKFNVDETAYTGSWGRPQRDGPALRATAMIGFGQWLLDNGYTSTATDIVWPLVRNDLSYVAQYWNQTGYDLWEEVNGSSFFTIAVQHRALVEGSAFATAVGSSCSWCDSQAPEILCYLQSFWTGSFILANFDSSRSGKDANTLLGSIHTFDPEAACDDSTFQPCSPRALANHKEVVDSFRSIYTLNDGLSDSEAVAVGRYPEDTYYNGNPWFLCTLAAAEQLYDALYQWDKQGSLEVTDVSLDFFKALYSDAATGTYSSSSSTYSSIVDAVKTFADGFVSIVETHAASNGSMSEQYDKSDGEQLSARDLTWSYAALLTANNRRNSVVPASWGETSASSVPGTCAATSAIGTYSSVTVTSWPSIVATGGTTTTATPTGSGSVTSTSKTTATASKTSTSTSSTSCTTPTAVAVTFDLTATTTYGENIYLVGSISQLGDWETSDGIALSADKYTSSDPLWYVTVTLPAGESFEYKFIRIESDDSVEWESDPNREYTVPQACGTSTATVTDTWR

inhibition [1]: 53%
IC50 (Beta-galactosidase): 770 µM
IC50 (Beta-glucosidase A [2]): 290 µM
inhibition [3]: 39%
inhibition [4]: inactive
inhibition [5]: 26%
inhibition [6]: inactive
inhibition [7]: 59%
inhibition [8]: inactive
IC50 [9]: 610 µM
IC50 [10]: 120 µM
Ki [10]: 40 µM
inhibition [11]: 76%
Ki (Beta-glucosidase A [12]): 120 µM
inhibition [13]: inactive
Compound: OC1CNC(CNCC2CCN(Cc3ccccc3)CC2)C1O (stereo not given)
